Assay results taken from the NIST ThermoML archive (doi:10.1021/je800883b).

Legend:
[1] = xn = mol fraction of the nth substance listed; conditions: 101 kPa, Liquid, Pycnometric method
[2] = 101 kPa, Liquid, Pycnometric method

C1CCCCC1 [cyclohexane] + CCC(C)=O
[1], x2 = 0
Conditions | mass density [kg/m3]
303.15 K | 768.9
313.15 K | 759.2
323.15 K | 748.7

CCCCCC [hexane] + CCC(C)=O
[1], x2 = 0
Conditions | mass density [kg/m3]
303.15 K | 650.9
313.15 K | 641.7
323.15 K | 630.9

CCC(C)=O [butanone] + c1ccccc1
mass density [kg/m3], [1]
Conditions | x1 = 0.101 | x1 = 0.1999 | x1 = 0.2988 | x1 = 0.3969 | x1 = 0.4996 | x1 = 0.5988 | x1 = 0.6993 | x1 = 0.7931 | x1 = 0.8961 | x1 = 1
303.15 K | 861.2 | 854.2 | 847.1 | 839.9 | 832.7 | 825.2 | 817.5 | 809.9 | 802.2 | 794.6
313.15 K | 850.6 | 843.5 | 836.6 | 829.3 | 822.1 | 814.6 | 806.9 | 799.4 | 791.7 | 784
323.15 K | 839.9 | 832.9 | 825.9 | 818.7 | 811.5 | 803.9 | 796.4 | 788.9 | 781.1 | 773.3

CCC(C)=O [butanone] + C1CCCCC1
mass density [kg/m3], [1]
Conditions | x1 = 0.1066 | x1 = 0.2093 | x1 = 0.3084 | x1 = 0.4042 | x1 = 0.5064 | x1 = 0.6055 | x1 = 0.7007 | x1 = 0.8015 | x1 = 0.907 | x1 = 1
303.15 K | 768 | 768.3 | 769.5 | 771.3 | 773.6 | 776.2 | 779.8 | 784 | 789.6 | 794.6
313.15 K | 758.3 | 757.4 | 758.2 | 759.9 | 762.4 | 765.1 | 769.2 | 772.7 | 777.8 | 784
323.15 K | 747.4 | 746.5 | 747.3 | 749.2 | 751.3 | 754.4 | 757.8 | 761.7 | 767.2 | 773.3

c1ccccc1 [benzene]
[2]
Conditions | mass density [kg/m3]
303.15 K | 868.1
313.15 K | 857.4
323.15 K | 846.6

c1ccccc1 [benzene] + CCC(C)=O
[1], x2 = 0
Conditions | mass density [kg/m3]
303.15 K | 868.1
313.15 K | 857.4
323.15 K | 846.6

CCC(C)=O [butanone]
[2]
Conditions | mass density [kg/m3]
303.15 K | 794.6
313.15 K | 784
323.15 K | 773.3

C1CCCCC1 [cyclohexane]
[2]
Conditions | mass density [kg/m3]
303.15 K | 768.9
313.15 K | 759.2
323.15 K | 748.7

CCC(C)=O [butanone] + CCCCCC
mass density [kg/m3], [1]
Conditions | x1 = 0.1057 | x1 = 0.2048 | x1 = 0.3035 | x1 = 0.4071 | x1 = 0.5035 | x1 = 0.6029 | x1 = 0.7042 | x1 = 0.8059 | x1 = 0.9033 | x1 = 1
303.15 K | 660 | 670 | 680.6 | 692.9 | 706 | 720.7 | 736.8 | 754.9 | 774 | 794.6
313.15 K | 650.4 | 659 | 669.5 | 682 | 694.7 | 709.2 | 725.3 | 742.9 | 763 | 784
323.15 K | 639.6 | 648 | 658.5 | 670.4 | 683.8 | 698.2 | 714.2 | 732.2 | 752.3 | 773.3

CCCCCC [hexane]
[2]
Conditions | mass density [kg/m3]
303.15 K | 650.9
313.15 K | 641.7
323.15 K | 630.9
